Test results: patent US20260234295A1, “ULTRALOW MOLECULAR WEIGHT HEPARIN” (The University of North Carolina at Chapel Hill, priority 2022, published 2026)
Values joined by “and” are separate entries in the source; they are usually repeats but may differ in a detail not shown here. Equal values may be shown once.

Key:
Human FXa (Homo sapiens) = test system: T1, Human FXa (Homo sapiens); assay: Anti-FXa activity, chromogenic substrate S-2765 with antithrombin; format: biochemical; conditions: for anti-FXa activity after incubation with heparanase: after heparanase digestion, digested byproduct; for IC50: human FXa, antithrombin, S-2765, read-out: anti-FXa activity, calculated IC50 (converted)
T1 construct: Human FXa (Enzyme Research Laboratories, South Bend, Indiana, United States of America); purchased Enzyme Research Laboratories
Description: Human FXa (Enzyme Research Laboratories, South Bend, Indiana, United States of America) was diluted in phosphate buffered saline (PBS) to 50 U/mL. Antithrombin was diluted to 0.03 mg/mL in PBS with 1 mg/mL of bovine serum albumin (BSA). The chromogenic substrate, S-2765 (Diapharma, Westchester, Ohio, United States of America) was diluted to 1 mg/mL in water. Heparin oligosaccharides were dissolved in PBS at various concentrations (7 to 3600 ng/mL). A reaction mixture including 60 μL of antithrombin and 24 μL of a solution containing a heparin oligosaccharide was incubated at room temperature for 3 min. FXa (100 μL) was then added, which was followed after a 2 min incubation at room temperature by the addition of 30 μL of chromogenic substrate, S-2765. The absorbance of the mixture was measured at 405 nm for 5 min and plotted against reaction time. The initial reaction rate as a function of oligosaccharide concentration was used to calculate IC50.

bovine FXa = target: T2, bovine FXa; assay: ACTICHROME heparin activity assay, FXa inhibition with human antithrombin; format: biochemical; conditions: ACTICHROME kit, read-out: FXa activity, calculated 50% inhibitory concentration (IC50) (converted)
T2 construct: purchased BioMedica Diagnostics
Description: Data shown as mean standard deviation. Briefly, varying concentrations of HR 7-mer, enoxaparin, and fondaparinux were prepared in phosphate-buffered saline (PBS). A total of 5 microliters (μL) of each sample was added to each well, followed by the addition of 40 μL of human antithrombin for 2 minutes (min) at 37 degrees Celsius (° C.). A total of 40 μL of bovine FXa stock solution was then added and incubated for 1 min at 37° C., followed by the addition of 40 μL of chromogenic substrate sold under the tradename SPECTROZYME® FXa (BioMedica Diagnostics, Windsor, Canada). After a 5 min incubation period at 37° C., the reaction was terminated by the addition of 40 μL of glacial acetic acid. Absorbance was measured at 405 nanometers (nm) and results presented as percent inhibition of FXa activity.

[1] = test system: non-occlusive venous thrombosis; assay: Murine model of non-occlusive venous thrombosis (electrolytic injury of the inferior vena cava); format: in vivo, C57BL/6 mice
Description: Heparin-based drug efficacy was evaluated in a preclinical mouse model of non-occlusive venous thrombosis (46). HR 7-mer was administered subcutaneously (12 μg/g, n=5) to male C57BL/6 mice (8-12 weeks of age) 1 hour prior to electrolytic injury and 24 hours after injury. Enoxaparin was administered subcutaneously (4 μg/g, n=5) 4 hours prior and 24 hours after electrolytic injury as a clinically relevant reference and an additional control group enrolled with saline vehicle administered subcutaneously (n=6). […] Venous side branches were ligated or cauterized, while posterior branches were left patent. A 25-gauge stainless steel needle, attached to a silver-coated copper wire was inserted into the exposed caudal vena cava and positioned against the anterior wall (anode). A second wire was implanted subcutaneously to complete the circuit (cathode) and a 250 μAmps current applied for 15 min. Subsequently, the needle was removed and a cotton swab held in gentle contact with the puncture site to prevent bleeding. The vena cava and associated thrombus, immediately below the renal veins to just above the bifurcation, was excised 48 hours after injury for determination of wet thrombus weight.

tail vein bleeding = assay: Tail vein transection bleeding time; format: in vivo, C57BL/6 mice
Description: The effect of test drug on bleeding time was assessed in a murine tail vein transection model (46). Sterile saline (n=5), HR 7-mer (12 μg/g, n=5) or enoxaparin (4 μg/g, n=7) was administered subcutaneously. Mice were anesthetized with ketamine and xylazine by intraperitoneal injection and placed on a warming mat at 37° C. Either 1 hour or 4 hours after administration of HR 7-mer or enoxaparin, respectively, the lateral tail vein was transected with a number 11 scalpel blade at a tail width of 2.3 mm and immediately submerged in PBS at 37° C. The bleeding time was determined at that instant when bleeding had ceased for 30 seconds. Animals were excluded if arterial bleeding was present.

Recombinant heparanase = target: T3, Recombinant heparanase (Homo sapiens, UniProt Q9Y251); assay: Incubation of heparin oligosaccharides with recombinant heparanase, HPLC and LC-MS analysis; format: in vitro ADME; conditions: overnight incubation with heparanase, 37° C., pH 6.0
T3 construct: made in house; host or cells: insect cells (baculovirus expression system)
T3 sequence (Q9Y251 158-543 limits assumed): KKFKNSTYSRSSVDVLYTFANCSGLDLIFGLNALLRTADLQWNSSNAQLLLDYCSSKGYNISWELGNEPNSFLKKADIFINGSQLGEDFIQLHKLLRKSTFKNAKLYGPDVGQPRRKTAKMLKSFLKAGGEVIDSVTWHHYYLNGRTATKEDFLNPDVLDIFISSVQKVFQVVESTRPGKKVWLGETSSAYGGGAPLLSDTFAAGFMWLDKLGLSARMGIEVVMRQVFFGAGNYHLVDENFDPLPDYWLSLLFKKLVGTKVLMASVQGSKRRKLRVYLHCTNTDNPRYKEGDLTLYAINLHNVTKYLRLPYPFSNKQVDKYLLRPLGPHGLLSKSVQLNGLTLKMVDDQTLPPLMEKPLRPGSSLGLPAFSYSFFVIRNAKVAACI
T3 sequence (Q9Y251 36-109 limits assumed): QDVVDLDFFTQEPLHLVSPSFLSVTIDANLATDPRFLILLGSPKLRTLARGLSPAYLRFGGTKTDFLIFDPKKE
Description: Recombinant heparanase was expressed in insect cells using the baculovirus expression system and purified by a heparin-Sepharose column, as previously described (40). Heparin oligosaccharides, HS 6-mer (20 μg) or HR 7-mer (20 μg), were incubated overnight at 37° C. in 250 μL of MES (50 mM, pH 6.0) in the presence of heparanase (2 μg for 1× heparanase digestion, or 20 μg for 10× heparanase digestion).
High performance liquid chromatography (HPLC) analysis was conducted with a strong anion exchange column (Propac™ PA1 column, 10 μm, 9 mm×250 mm, Thermo Fisher, Waltham, MA) using a Shimadzu Prominence UFLC20A system (Shimadzu Corporation, Columbia, MD) with a UV detector set at 310 nm. A linear gradient was used for analytical purposes and included a solvent A: 20 mM NaAcO (pH 5.0); and solvent B: 2 M NaCl with 20 mM NaAcO (pH 5.0): 0-3 min: 0-80% B, 3.1-23 min: 80-100% B at a flow rate of 2 mL/min. A total of 5-10 μg of oligosaccharides was injected per run.
LC-MS/MS analysis of heparanse digested oligosaccharides was implemented on a Vanquish Flex UHPLC system (Thermo Fisher, Waltham, MA) coupled with a TSQ Fortis triple-quadrupole mass spectrometer. The ACQUITY Glycan BEH Amide column ([…], 2.1×150 mm; Waters) was used at 60° C. The mobile phase A was 50 mM ammonium formate in water (pH 4.4) and mobile phase B was acetonitrile. […]

T1 sequence (P01008 33-464): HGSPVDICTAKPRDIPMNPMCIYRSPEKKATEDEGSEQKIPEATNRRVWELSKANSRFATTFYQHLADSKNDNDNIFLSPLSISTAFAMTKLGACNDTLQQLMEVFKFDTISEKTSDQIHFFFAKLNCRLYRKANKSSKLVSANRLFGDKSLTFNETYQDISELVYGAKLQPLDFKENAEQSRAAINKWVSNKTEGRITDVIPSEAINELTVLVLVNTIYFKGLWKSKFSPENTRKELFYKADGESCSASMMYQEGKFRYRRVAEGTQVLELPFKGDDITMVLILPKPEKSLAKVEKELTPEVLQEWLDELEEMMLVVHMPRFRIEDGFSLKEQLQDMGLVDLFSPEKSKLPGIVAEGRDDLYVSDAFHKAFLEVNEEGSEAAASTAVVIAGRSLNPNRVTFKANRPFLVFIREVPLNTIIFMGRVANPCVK
T2 sequence (P01008 33-464): as above

Row | SMILES | anti-FXa activity after incubation with heparanase (Human FXa (Homo sapiens)) | IC50 (Human FXa (Homo sapiens)) | IC50 (bovine FXa) [nM] | reduction in thrombus formation as compared to saline vehicle ([1]; 48 hours after injury, HR 7-mer 12 μg/g SC 1 hour prior and 24 hours after, enoxaparin 4 μg/g SC 4 hours prior and 24 hours after) [%] | Avg. IVC weight ([1]; wet thrombus weight 48 hours after injury, enoxaparin 4 μg/g, 4 hr pre, SC, HR 7-mer 12 μg/g, 1 hr pre, SC) [mg] | bleeding time (tail vein bleeding; enoxaparin 4 μg/g SC, 4 hours, HR 7-mer 12 μg/g SC, 1 hour, saline vehicle 81±3 sec) [s] | Avg. bleeding time (tail vein bleeding; enoxaparin 4 μg/g, 4 hr pre, SC, HR 7-mer 12 μg/g, 1 hr pre) [s] | susceptibility to heparanase mediated degradation (HPLC, LC-MS) (Recombinant heparanase)
1 | O=C(O)C1OC(Oc2ccc([N+](=O)[O-])cc2)C(O)C(O)C1OC1OC(COS(=O)(=O)O)C(OC2OC(C(=O)O)C(OC3OC(COS(=O)(=O)O)C(OC4OC(C(=O)O)C(OC5OC(COS(=O)(=O)O)C(O)C(O)C5NS(=O)(=O)O)C(O)C4OS(=O)(=O)O)C(OS(=O)(=O)O)C3NS(=O)(=O)O)C(O)C2OS(=O)(=O)O)C(O)C1NS(=O)(=O)O (stereo not drawn) [Compound 6-mer-D] | preservation of anti-FXa activity | 193 nM |  |  |  |  |  | 
2 | O=C(O)C1OC(OC2C(COS(=O)(=O)O)OC(OC3C(C(=O)O)OC(OC4C(COS(=O)(=O)O)OC(OC5C(C(=O)O)OC(OC6C(COS(=O)(=O)O)OC(OC7C(C(=O)O)OC(Oc8ccc([N+](=O)[O-])cc8)C(O)C7O)C(NS(=O)(=O)O)C6O)C(OS(=O)(=O)O)C5O)C(NS(=O)(=O)O)C4OS(=O)(=O)O)C(OS(=O)(=O)O)C3O)C(NS(=O)(=O)O)C2O)C(O)C(O)C1O (stereo not drawn) [HR 7-mer] |  | 95.7 nM and 96 nM | 3870 | 40.3±3.9 | 18.8 ± 1.2 | 143 ± 18 | 143 ± 18 | loss of GlcA
3 | O=C(O)C1OC(OC2C(COS(=O)(=O)O)OC(OC3C(C(=O)O)OC(OC4C(COS(=O)(=O)O)OC(OC5C(C(=O)O)OC(Oc6ccc([N+](=O)[O-])cc6)C(O)C5O)C(NS(=O)(=O)O)C4O)C(OS(=O)(=O)O)C3O)C(NS(=O)(=O)O)C2OS(=O)(=O)O)C(O)C(O)C1OC1OC(COS(=O)(=O)O)C(O)C(O)C1NS(=O)(=O)O (stereo not drawn) [HS 6-mer, reference compound] | completely lost | 21.2 nM and 21 nM |  |  |  |  |  | cleavage of the -[GlcA-GlcNS3S6S]- disaccharide to afford a tetrasaccharide (4-mer-D)
